Measured values: article PMC9928118, “Funneling modulatory peptide design with generative models: Discovery and characterization of disruptors of calcineurin protein-protein interactions” (PLOS Computational Biology, 2023)

Test system: GST-tagged Cn
Assay: PEPperPRINT peptide microarray binding assay with GST-tagged Cn
Excerpt: We then estimated in-silico the binding strength of the various peptides to Cn by template-based docking followed by flexible backbone refinement using Modeller and PepCrawler (Figs 4 and S4). In parallel, we performed a medium-throughput qualitative binding assay using a PEPperPRINT peptide microarray to evaluate the direct binding of Cn to selected peptides (Figs 4 and S5, S3 Data).
Fig 4 Medium-throughput filtering by structural modeling and microarray screening. (a) Depiction of the structural modeling protocol: after alignment to the known PxIxIT binding site, an efficient flexible backbone structure refinement algorithm is applied to estimate the docking energy. […] (c) Coefficients of the equivalent single-site model fitted by sparse linear regression, shown in weight logo representation. […] Colors indicate physical property (black = hydrophobic, red = negatively charged, etc.). (d) Per-gene distribution of docking scores across natural fragments (lower is better). […] (e) Overview of the microarray screening. Peptides are printed on the chip (two circles per peptide). After pouring of Cn and subsequent washing, fluorescent-tagged, a Cn-targeting antibody is overlaid and an image is taken. Fluorescent spots indicate strong Cn binders. (f) Scatter plot of the sequence likelihood (normalized by length, higher is better) against fluorescence level (higher is better, see Methods for details of the data analysis).
In parallel, selected peptides were tested for Cn binding on a chip microarray (PEPperPRINT). 786 peptides were printed on the chip and were incubated with GST-tagged Cn overnight at 4°C. Following extensive washing, binding was detected by applying a fluorescently labeled (Alexa-Fluor 647) GST antibody. […] The experiment was repeated five times, and Z-normalized fluorescence levels were determined following post-processing of the raw data (Methods, S5A, S5B and S5C Fig).
The peptide array was prepared as a custom array pepper chip (PEPperPRINT). For binding detection, 1mg/ml GST-tagged Cn was incubated overnight on the microarray at 4°C. Following extensive washing, fluorescently labeled (Alexa-Fluor 647) GST-antibody. […] The experiment was repeated five times. Each scan was analyzed as follows: a grid was overlaid using the border HA markers to determine regions of interest (ROI) for each peptide (two ROIs per peptide) and the logarithm of the average fluorescence intensity was computed for each ROI. […] To remove spatial artifacts, a position-dependent baseline fluorescence was fitted using a second-order polynomial, and subtracted to the fluorescence. Fluorescence levels were next averaged over the two ROI for each peptide and Z-normalized. […] The Z-scores were averaged over the five repetitions to yield one fluorescence score per peptide.

[1] = GST-tagged Cn, max over the chip locations
[2] = GST-tagged Cn, mean over the chip locations
[3] = max over the chip locations listed for the peptide (two spots)
[4] = mean over the chip locations listed for the peptide (two spots)
[5] = GST-tagged Cn, max over the spots named in Location on chip
[6] = GST-tagged Cn, mean over the spots named in Location on chip
[7] = max over the spots listed under Location on chip
[8] = mean over the spots listed under Location on chip
[9] = GST-tagged Cn, max over the chip spots listed under Location on chip
[10] = GST-tagged Cn, mean over the chip spots listed under Location on chip
[11] = GST-tagged Cn, max over the spots on the chip (two locations)
[12] = GST-tagged Cn, mean over the spots on the chip (two locations)

LAFALPAFSFAAMKSA [SeqRBM_4599]
Chip Fluorescence (max) [1]: -0.5301 | Chip Fluorescence (mean) [2]: -2.0266

TFWTNPQYRLKLEDPD [SeqRBMlowT_1296]
Chip Fluorescence (max) [3]: 7.375 | Chip Fluorescence (mean) [4]: 1.564

LLLKIPSLNINDVEAS [SeqRBM_1919]
Chip Fluorescence (max) [1]: -0.781 | Chip Fluorescence (mean) [2]: -1.379

DSLEGATIVITLTEGK [SeqRBM_8933]
Chip Fluorescence (max) [3]: 3.74 | Chip Fluorescence (mean) [4]: 0.5914

QGIYQDLGGINNFSIS [SeqCRZ1_Pseudogymnoascus_sp]
Chip Fluorescence (max) [1]: -0.4093 | Chip Fluorescence (mean) [2]: -1.098

GGPGTPGRQGQHLAPS [SeqRBMlowT_7794]
Chip Fluorescence (max) [1]: 0.3619 | Chip Fluorescence (mean) [2]: -1.021

GGPGTPGRQGQPLAPS [SeqRBMlowT_7795]
Chip Fluorescence (max) [5]: 1.388 | Chip Fluorescence (mean) [6]: -0.6767

LGRMSPQSTTQALPST [Seqshuffled_9332]
Chip Fluorescence (max) [5]: 1.718 | Chip Fluorescence (mean) [6]: -0.1183

YRDSWVTACQKIQSKI [Seqrandom_9988]
Chip Fluorescence (max) [7]: 3.109 | Chip Fluorescence (mean) [8]: 0.4888

ADEAIPEITITSAELP [SeqRBMlowT_2514]
Chip Fluorescence (max) [3]: 17.6628 | Chip Fluorescence (mean) [4]: 2.99

KSKSIPKISIQSPVHH [SeqRBMlowT_1684]
Chip Fluorescence (max) [7]: 2.868 | Chip Fluorescence (mean) [8]: 0.2995

SDEAGPRIVITATELP [SeqRBMlowT_4492]
Chip Fluorescence (max) [7]: 2.835 | Chip Fluorescence (mean) [8]: 0.5943

RAYINPFMMFRSGGNK [SeqSFB3_Cordyceps_militaris]
Chip Fluorescence (max) [9]: 0.6899 | Chip Fluorescence (mean) [10]: -0.6148

DVSDSPDVDLKIPQAR [SeqRBM_5022]
Chip Fluorescence (max) [9]: 0.6546 | Chip Fluorescence (mean) [10]: -0.1589

TFWTNPQYRVHVCDPD [SeqRBMlowT_293]
Chip Fluorescence (max) [5]: 1.378 | Chip Fluorescence (mean) [6]: -0.7162

RAYINPFMTFTDGGRR [SeqRBMlowT_3400]
Chip Fluorescence (max) [7]: 3.064 | Chip Fluorescence (mean) [8]: 0.978

KAYMCPYMQFIDGGRK [SeqRBMlowT_9280]
Chip Fluorescence (max) [5]: 1.462 | Chip Fluorescence (mean) [6]: 1.063

TGWTNPQFKLRLENDP [SeqRBM_4269]
Chip Fluorescence (max) [9]: 0.7861 | Chip Fluorescence (mean) [10]: -0.005549

AINASPEIVVGYDELP [SeqRBM_6435]
Chip Fluorescence (max) [5]: 1.452 | Chip Fluorescence (mean) [6]: 1.232

KKMAPPCINIDFAPEN [SeqRBMlowT_2474]
Chip Fluorescence (max) [5]: 1.579 | Chip Fluorescence (mean) [6]: 0.1538

STSSLPTFSFSSPPST [SeqRBMlowT_3479]
Chip Fluorescence (max) [1]: -1.235 | Chip Fluorescence (mean) [2]: -1.867

LTDAAPEVVVSKPEHN [SeqRBMlowT_7696]
Chip Fluorescence (max) [11]: 1.26 | Chip Fluorescence (mean) [12]: 0.2646

KAYMCPFMSFIDGGQR [SeqRBMlowT_3665]
Chip Fluorescence (max) [7]: 2.726 | Chip Fluorescence (mean) [8]: 0.3874

SQMAAPAINIDFAPTN [SeqRBMlowT_314]
Chip Fluorescence (max) [11]: 0.998 | Chip Fluorescence (mean) [12]: -0.1818

LTWTSLRYSVNDDKNT [Seqshuffled_9363]
Chip Fluorescence (max) [3]: 15.2815 | Chip Fluorescence (mean) [4]: 4.411

RNPGQPLLELEGHSAP [SeqRBMlowT_7742]
Chip Fluorescence (max) [3]: 5.135 | Chip Fluorescence (mean) [4]: 0.4912

GVPETPSRPVDPTAPS [SeqRBM_5086]
Chip Fluorescence (max) [1]: -0.4316 | Chip Fluorescence (mean) [2]: -1.3551

QELFISNITVDHSGSY [SeqCEACAM5_Aotus_nancymaae]
Chip Fluorescence (max) [3]: 6.254 | Chip Fluorescence (mean) [4]: 1.438

SFWTNPQFRVKLEEVD [SeqRBMlowT_8566]
Chip Fluorescence (max) [11]: 1.129 | Chip Fluorescence (mean) [12]: 0.3513

VSLKIPGSSAIDLTAS [SeqFLNA_Trichinella_nativa]
Chip Fluorescence (max) [1]: -0.0417 | Chip Fluorescence (mean) [2]: -0.9527

TFWTNPQFKITLTDPD [SeqRBMlowT_9027]
Chip Fluorescence (max) [11]: 1.278 | Chip Fluorescence (mean) [12]: -0.7291

PENKFQPFAIKLCVKG [Seqshuffled_5021]
Chip Fluorescence (max) [9]: 0.8772 | Chip Fluorescence (mean) [10]: -0.6992

VVMHKMPKTGGWWHCP [Seqrandom_9963]
Chip Fluorescence (max) [7]: 2.722 | Chip Fluorescence (mean) [8]: 1.008

KVRTALYFTWNLTERG [Seqshuffled_9698]
Chip Fluorescence (max) [11]: 1.275 | Chip Fluorescence (mean) [12]: 0.3801

PGCATPRIAITPTENM [SeqRBM_2983]
Chip Fluorescence (max) [11]: 1.167 | Chip Fluorescence (mean) [12]: 0.2882

LKDEFSDVRLNIISNL [SeqRBMlowT_1878]
Chip Fluorescence (max) [9]: 0.7069 | Chip Fluorescence (mean) [10]: 0.04327

ARSFCPHRQVLSCKPK [SeqRBM_8304]
Chip Fluorescence (max) [3]: 4.921 | Chip Fluorescence (mean) [4]: 0.2408

RTYMNPFASFLDHSHR [SeqSFB3_Pseudocercospora_musae]
Chip Fluorescence (max) [11]: 1.14 | Chip Fluorescence (mean) [12]: -0.1201

KKMAPPAINIDFAPTN [SeqRBMlowT_341]
Chip Fluorescence (max) [5]: 1.339 | Chip Fluorescence (mean) [6]: -0.05324

LNLKIPEIDSSDMSAH [SeqFLNA_Erinaceus_europaeus]
Chip Fluorescence (max) [11]: 1.157 | Chip Fluorescence (mean) [12]: 0.3599

PFEKNDIQQIHLEEHP [Seqshuffled_9861]
Chip Fluorescence (max) [5]: 1.396 | Chip Fluorescence (mean) [6]: 0.78

PSDPQPSIIVHACLED [SeqRBM_9284]
Chip Fluorescence (max) [7]: 3.302 | Chip Fluorescence (mean) [8]: 0.8695

HVSSSPDIVITPTQHR [SeqRBMlowT_1399]
Chip Fluorescence (max) [1]: 0.3374 | Chip Fluorescence (mean) [2]: -0.4706

TFWTNPQYRIKLEEPD [SeqRBMlowT_34]
Chip Fluorescence (max) [1]: 0.1832 | Chip Fluorescence (mean) [2]: -0.5691

RTYINPFVTFVDGGNK [SeqRBMlowT_3664]
Chip Fluorescence (max) [1]: 0.3337 | Chip Fluorescence (mean) [2]: -0.6971

QGLYENVLGMEAFSVS [SeqRBM_7629]
Chip Fluorescence (max) [9]: 0.8552 | Chip Fluorescence (mean) [10]: 0.1691

RNPGSPTLELNGHSGG [SeqRBM_9695]
Chip Fluorescence (max) [11]: 1.159 | Chip Fluorescence (mean) [12]: -0.3352

DSLKIPQVRMRIDSAT [SeqRBM_3711]
Chip Fluorescence (max) [1]: -0.1629 | Chip Fluorescence (mean) [2]: -1.069

TFWTNPQYRMVLDEDD [SeqRBM_7411]
Chip Fluorescence (max) [3]: 5.3741 | Chip Fluorescence (mean) [4]: 1.404

TFWTNPQYKITLEEED [SeqRBMlowT_3204]
Chip Fluorescence (max) [7]: 3.2 | Chip Fluorescence (mean) [8]: 1.112

ASALSPRIEITPSHEL [SeqNFATC1_Alligator_mississippiensis]
Chip Fluorescence (max) [7]: 3.085 | Chip Fluorescence (mean) [8]: 0.192

AAGAGVGIVITVTEAE [SeqRBMlowT_180]
Chip Fluorescence (max) [7]: 3.317 | Chip Fluorescence (mean) [8]: 1.923

VQLFIHLPSSDDTGSY [SeqRBM_6875]
Chip Fluorescence (max) [11]: 1.006 | Chip Fluorescence (mean) [12]: -4.049

STSSLPTFSFSSPLST [SeqRBMlowT_892]
Chip Fluorescence (max) [5]: 1.3512 | Chip Fluorescence (mean) [6]: -0.8669
